Results on eight molecules are retold here after ChEMBL document CHEMBL1201862, “PubChem BioAssay data set” (2004).

Activity calls are given as the source filed them. Some results are limits rather than exact numbers.

In experiment [1] the target is T1, Probable nicotinate-nucleotide adenylyltransferase (Staphylococcus aureus (strain N315), UniProt P65502). It counts as functional, Staphylococcus aureus subsp. aureus N315.
Experiment [2] addresses T1, Probable nicotinate-nucleotide adenylyltransferase. It counts as functional, Staphylococcus aureus subsp. aureus N315. The settings on record: read-out: IC50_Mean.
The target of experiment [3] is T2, Corticotropin-releasing factor receptor 2/Corticotropin-releasing factor-binding protein (Homo sapiens, UniProt P24387+Q13324).
T2 sequence (Q13324 whole entry): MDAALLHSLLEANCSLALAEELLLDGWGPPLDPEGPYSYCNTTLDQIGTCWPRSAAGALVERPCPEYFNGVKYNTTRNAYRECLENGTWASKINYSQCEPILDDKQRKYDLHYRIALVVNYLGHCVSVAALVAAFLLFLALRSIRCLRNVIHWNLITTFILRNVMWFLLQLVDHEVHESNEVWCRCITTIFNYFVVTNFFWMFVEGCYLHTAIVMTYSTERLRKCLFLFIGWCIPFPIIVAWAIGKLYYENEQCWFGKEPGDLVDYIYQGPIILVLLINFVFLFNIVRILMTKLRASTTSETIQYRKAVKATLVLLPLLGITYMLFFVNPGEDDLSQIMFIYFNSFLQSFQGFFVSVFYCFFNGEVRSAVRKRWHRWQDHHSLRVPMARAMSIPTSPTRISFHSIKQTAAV
T2 sequence (P24387 whole entry): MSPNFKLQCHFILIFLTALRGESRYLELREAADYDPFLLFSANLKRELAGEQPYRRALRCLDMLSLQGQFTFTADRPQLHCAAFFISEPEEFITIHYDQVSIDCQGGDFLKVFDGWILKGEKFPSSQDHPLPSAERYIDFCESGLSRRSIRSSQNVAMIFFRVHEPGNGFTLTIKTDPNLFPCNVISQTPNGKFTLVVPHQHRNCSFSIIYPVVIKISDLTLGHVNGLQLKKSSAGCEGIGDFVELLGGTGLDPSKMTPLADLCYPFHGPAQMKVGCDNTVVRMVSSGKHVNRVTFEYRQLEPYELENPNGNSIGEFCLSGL
Kind of experiment: Dose Response confirmation of uHTS hits for small molecule antagonists of the CRF-binding protein and CRF-R2 receptor complex. The format is functional. The settings on record: read-out: IC50_Mean.

Experiment [4] has as its target T2, Corticotropin-releasing factor receptor 2/Corticotropin-releasing factor-binding protein. Kind of experiment: activators of CRF receptor 2 with binding protein – uHTS hits, confirmation (AID 602473). It counts as functional. The settings on record: read-out: EC50_Mean.
Experiment [5] is described as follows: CRF-BP/CRF-R2 complex antagonists, dose response, cell-based, uHTS hits, 384-well (AID 651639). The format is functional, Homo sapiens. As to conditions: read-out: IC50_Mean.
The target of experiment [6] is T3, Sentrin-specific protease 1 (Homo sapiens, UniProt Q9P0U3).
T3 sequence (Q9P0U3 whole entry): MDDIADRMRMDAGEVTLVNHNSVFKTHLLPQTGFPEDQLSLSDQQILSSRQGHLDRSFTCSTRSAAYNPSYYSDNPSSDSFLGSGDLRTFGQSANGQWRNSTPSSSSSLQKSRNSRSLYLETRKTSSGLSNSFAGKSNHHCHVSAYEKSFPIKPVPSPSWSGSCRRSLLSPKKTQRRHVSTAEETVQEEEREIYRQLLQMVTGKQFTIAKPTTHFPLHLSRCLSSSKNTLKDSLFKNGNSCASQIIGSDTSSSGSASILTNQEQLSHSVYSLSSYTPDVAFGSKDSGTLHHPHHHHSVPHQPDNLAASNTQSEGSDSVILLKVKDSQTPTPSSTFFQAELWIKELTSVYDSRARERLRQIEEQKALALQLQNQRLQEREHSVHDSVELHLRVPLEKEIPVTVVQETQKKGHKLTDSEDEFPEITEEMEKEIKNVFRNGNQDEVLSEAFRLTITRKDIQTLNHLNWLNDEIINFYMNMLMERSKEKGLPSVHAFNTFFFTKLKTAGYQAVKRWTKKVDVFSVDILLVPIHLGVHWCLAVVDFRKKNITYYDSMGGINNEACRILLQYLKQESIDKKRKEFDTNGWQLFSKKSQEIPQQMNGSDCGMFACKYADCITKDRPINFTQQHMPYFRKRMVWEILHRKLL
Kind of experiment: potency of human SENP1 inhibitors, dose response, biochemical, kinetic FRET (AID 651697). As to conditions: read-out: IC50_Mean. It counts as functional.

The target in experiment [7] is T3, Sentrin-specific protease 1. Kind of experiment: Dose response confirmation of small molecule inhibitors of the catalytic domain of the SUMO protease, SENP1 in a FRET assay. The format is functional. As to conditions: read-out: IC50_Mean.
A further experiment addresses Albumin (Bos taurus, UniProt P02769). Kind of experiment: Counterscreen for inhibitors of T-cell receptor (TCR)-CD3 interaction: Fluorescence-based biochemical high throughput dose response assay to identify inhibitors of T-cell receptor (TCR)-CD3 interaction using a TAMRA-labeled BSA probe. The format is functional.
A short description of experiment [8]: inhibitors of intracellular T. cruzi replication, confirmation, NIH3T3 host cells, beta-gal luminescence (AID 2044).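 Also: intracellular parasites grown in NIH/3T3 mouse fibroblasts as host cells; luminescent beta-galactosidase reporter signal from transgenic T. cruzi replicating inside host cells; inhibitors lower the luminescence signal.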 It counts as functional, cell-based.
The nature of experiment [9]: cytotoxicity toward NIH3T3 fibroblasts, dose response, counter-screen, cell-based, ATP luminescence, mouse fibroblasts (AID 2010).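 Also: cells exposed to compound for about 90 hours before reading.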 The format is functional. Background: The purpose of a counterscreen is to sort out artefacts and off-target activity.
The target of the next experiment is T4, Caspase-3 (Homo sapiens, UniProt P42574).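 Also: Dose-response selectivity test against caspase-3 for candidate inhibitors of sentrin-specific proteases (SENPs).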
T4 sequence (P42574 whole entry): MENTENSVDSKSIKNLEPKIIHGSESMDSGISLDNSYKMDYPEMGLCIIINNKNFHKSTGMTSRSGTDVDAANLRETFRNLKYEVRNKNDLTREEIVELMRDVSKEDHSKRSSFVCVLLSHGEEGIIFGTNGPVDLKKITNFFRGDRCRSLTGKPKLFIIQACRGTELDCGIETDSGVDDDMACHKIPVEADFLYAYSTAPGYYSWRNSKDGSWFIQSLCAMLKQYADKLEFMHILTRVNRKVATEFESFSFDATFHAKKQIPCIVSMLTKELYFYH
The format is functional.

In experiment [10] the target is T5, Sentrin-specific protease 7 (Homo sapiens, UniProt Q9BQF6).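 Also: Luminescence-based dose-response confirmation of ultra-high-throughput screening hits, measuring inhibition of SENP7.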
T5 sequence (Q9BQF6 whole entry): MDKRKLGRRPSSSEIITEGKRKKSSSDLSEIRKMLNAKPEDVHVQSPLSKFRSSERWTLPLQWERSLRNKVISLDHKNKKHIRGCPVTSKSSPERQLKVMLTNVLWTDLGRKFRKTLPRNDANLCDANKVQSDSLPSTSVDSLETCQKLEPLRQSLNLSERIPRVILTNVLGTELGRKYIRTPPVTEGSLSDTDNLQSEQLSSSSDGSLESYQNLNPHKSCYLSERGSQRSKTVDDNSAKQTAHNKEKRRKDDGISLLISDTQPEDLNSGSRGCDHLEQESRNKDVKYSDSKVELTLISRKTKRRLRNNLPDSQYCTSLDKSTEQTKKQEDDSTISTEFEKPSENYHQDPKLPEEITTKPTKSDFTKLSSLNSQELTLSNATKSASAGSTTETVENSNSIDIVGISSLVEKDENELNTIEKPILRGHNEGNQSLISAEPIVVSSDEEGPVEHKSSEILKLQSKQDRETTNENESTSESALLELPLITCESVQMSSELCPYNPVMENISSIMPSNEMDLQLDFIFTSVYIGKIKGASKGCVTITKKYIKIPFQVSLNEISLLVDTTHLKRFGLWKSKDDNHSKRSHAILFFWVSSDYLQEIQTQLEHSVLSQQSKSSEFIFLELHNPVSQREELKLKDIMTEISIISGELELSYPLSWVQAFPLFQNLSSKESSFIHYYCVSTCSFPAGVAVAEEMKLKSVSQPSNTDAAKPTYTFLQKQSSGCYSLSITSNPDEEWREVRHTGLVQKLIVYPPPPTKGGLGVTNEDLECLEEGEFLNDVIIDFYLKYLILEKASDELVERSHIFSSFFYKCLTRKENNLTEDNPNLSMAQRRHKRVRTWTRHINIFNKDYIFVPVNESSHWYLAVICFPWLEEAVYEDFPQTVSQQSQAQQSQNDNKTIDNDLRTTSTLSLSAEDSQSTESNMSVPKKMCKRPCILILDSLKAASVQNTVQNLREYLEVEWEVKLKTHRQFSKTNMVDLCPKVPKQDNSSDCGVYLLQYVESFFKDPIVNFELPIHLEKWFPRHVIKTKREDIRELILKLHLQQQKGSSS
It counts as functional.

Experiment [11] concerns the target T6, Sentrin-specific protease 6 (Homo sapiens, UniProt Q9GZR1).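 Also: Luminescence-based dose-response confirmatory assay of SENP6 inhibition, following up an ultra-high-throughput screen.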
T6 sequence (Q9GZR1 whole entry): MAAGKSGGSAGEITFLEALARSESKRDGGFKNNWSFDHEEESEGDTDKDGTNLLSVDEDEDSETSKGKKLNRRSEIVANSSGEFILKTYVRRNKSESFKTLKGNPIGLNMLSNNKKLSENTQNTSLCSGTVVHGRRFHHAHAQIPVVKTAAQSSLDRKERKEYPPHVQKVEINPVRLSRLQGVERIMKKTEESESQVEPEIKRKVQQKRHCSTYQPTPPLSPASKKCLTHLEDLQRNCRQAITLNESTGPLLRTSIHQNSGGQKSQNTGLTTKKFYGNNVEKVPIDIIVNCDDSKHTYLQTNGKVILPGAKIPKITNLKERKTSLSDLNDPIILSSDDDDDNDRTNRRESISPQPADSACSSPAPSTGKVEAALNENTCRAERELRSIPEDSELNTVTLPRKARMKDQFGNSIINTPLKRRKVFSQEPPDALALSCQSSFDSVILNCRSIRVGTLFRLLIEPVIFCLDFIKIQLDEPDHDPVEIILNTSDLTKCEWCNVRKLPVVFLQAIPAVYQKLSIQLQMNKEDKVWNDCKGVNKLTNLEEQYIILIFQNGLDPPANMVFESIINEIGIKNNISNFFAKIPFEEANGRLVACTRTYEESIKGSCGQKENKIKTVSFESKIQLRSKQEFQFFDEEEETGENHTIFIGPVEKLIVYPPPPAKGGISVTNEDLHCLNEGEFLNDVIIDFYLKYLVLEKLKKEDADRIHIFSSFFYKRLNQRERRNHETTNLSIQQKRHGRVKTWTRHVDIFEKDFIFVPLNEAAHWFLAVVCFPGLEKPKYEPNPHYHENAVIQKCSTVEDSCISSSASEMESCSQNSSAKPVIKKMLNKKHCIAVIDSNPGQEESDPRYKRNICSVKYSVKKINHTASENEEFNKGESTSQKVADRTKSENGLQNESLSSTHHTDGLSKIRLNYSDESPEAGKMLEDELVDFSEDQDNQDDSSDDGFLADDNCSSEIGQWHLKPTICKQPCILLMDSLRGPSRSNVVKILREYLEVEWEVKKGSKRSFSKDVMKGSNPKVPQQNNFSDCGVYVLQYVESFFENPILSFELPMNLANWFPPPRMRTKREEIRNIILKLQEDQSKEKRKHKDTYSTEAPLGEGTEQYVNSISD
The format is functional.

The target of experiment [12] is T7, Sentrin-specific protease 8 (Homo sapiens, UniProt Q96LD8).
T7 sequence (Q96LD8 whole entry): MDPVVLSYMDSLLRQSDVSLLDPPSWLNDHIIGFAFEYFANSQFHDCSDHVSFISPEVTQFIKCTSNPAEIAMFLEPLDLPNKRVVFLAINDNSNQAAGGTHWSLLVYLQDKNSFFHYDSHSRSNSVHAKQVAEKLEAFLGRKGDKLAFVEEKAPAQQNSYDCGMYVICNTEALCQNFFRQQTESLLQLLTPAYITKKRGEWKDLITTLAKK
The format is functional.

Experiment [13] has as its target T7, Sentrin-specific protease 8. It counts as functional. This is another data set of the same source.
Experiment [14] shares this target. The format is functional. The source holds these as a separate data set.
The next experiment addresses T8, Caspase-6 (Homo sapiens, UniProt P55212).
T8 sequence (P55212 whole entry): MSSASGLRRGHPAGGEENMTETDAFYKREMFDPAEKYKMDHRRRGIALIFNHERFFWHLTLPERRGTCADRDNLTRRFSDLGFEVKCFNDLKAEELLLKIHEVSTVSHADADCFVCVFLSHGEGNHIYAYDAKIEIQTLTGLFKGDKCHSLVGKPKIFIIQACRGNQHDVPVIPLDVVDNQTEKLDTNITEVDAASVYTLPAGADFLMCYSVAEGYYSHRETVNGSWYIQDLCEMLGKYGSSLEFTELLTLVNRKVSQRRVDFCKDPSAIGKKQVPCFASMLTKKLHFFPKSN
Kind of experiment: human caspase-6 inhibitors, dose response, biochemical, VEID-R110 fluorescence, cherry-pick (AID 720632).

T1 sequence (P65502 whole entry): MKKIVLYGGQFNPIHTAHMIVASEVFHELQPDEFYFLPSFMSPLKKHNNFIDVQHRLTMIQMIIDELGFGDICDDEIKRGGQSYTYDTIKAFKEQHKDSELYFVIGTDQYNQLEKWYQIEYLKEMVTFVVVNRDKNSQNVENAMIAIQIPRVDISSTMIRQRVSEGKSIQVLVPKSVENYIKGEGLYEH
Chain of Albumin (P02769 whole entry): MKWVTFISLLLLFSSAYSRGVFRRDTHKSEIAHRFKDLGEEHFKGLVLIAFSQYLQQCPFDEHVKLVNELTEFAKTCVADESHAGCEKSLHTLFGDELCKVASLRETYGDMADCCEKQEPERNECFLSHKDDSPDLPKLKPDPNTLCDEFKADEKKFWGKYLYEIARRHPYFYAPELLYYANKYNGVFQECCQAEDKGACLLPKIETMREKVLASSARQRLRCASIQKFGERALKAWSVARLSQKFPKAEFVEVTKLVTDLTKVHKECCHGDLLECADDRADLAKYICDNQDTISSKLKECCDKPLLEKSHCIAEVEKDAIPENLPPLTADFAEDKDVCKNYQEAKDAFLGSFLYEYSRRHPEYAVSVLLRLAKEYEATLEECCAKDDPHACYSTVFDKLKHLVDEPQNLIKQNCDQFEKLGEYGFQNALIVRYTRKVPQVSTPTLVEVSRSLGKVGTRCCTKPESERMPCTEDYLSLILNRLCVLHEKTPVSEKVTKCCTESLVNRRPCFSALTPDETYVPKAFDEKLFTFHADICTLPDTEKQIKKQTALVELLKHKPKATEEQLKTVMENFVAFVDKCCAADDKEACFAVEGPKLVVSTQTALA

Take `O=C(Nc1ccc(S(=O)(=O)Nc2nccs2)cc1)c1cccc(N2C(=O)c3ccccc3C2=O)c1`: the IC50 in experiment [1] was 9.8 µM (active); in experiment [2], 38.2 µM (active).

Regarding `Cc1nn(Cc2ccc(Cl)cc2)c(C)c1NC(=O)c1ccc([N+](=O)[O-])cc1`, the results for the IC50 in [3] and in [5] were < 0.368 µM (active) and > 20 µM (inactive), respectively. Besides, in [4], the EC50 is > 53 µM (inactive).

As for `O=C(Nc1cc2c(cc1Cl)-c1ccc([N+](=O)[O-])cc1C2=NO)C(F)(F)F`, the IC50 in [6] was 12.5 µM (active); in [7], 2.89 µM (active).

As to `Cc1ccccc1C(=O)NNC(=S)NC(=O)c1cccnc1`, the IC50 at Albumin was > 94.1 µM (inactive).

Consider `COC(=O)C1=NN(c2ccccc2)C2(S1)SC(C(C)=O)=C(C)N2c1ccccc1` (centres undefined), for which the IC50 in experiment [3] is 25.7 µM (active); in [5] it was 19 µM (active). For the same molecule, the EC50 in experiment [4] is > 53 µM (inactive).

As for `COc1ccc(Nc2cc(C)nc3ncnn23)cc1Cl`, the IC50 is 40.8 µM (inactive) in experiment [6] and 19.6 µM (active) in experiment [7].

Regarding `Cc1c(C(=O)N2CC3(CC(c4cccc(NC(=O)CC(c5ccccc5)c5ccccc5)c4)=NO3)C[C@@H]2C(N)=O)cc([N+](=O)[O-])cc1[N+](=O)[O-]` (some centres undefined), the EC50 is 1.05 µM (active) in experiment [8] and > 60 µM (not active) in [9]. The IC50 is 16.8 µM (active) in experiment [1] and 38.4 µM (active) in [2].

On to `Cc1ccccc1N1C(=O)Cc2ccccc2C1=O`, for which the IC50 on Caspase-3 was 3.55 µM (active); in experiment [10], 23.8 µM (active); in [11] it was 8.06 µM (active); in [12], 45.7 µM (active); in experiment [13], > 100 µM (inactive); in experiment [14], 3.22 µM (active). The AC50 (commonly the midpoint of the concentration-response curve, whichever way the signal moves) at Caspase-6 is 27.4 µM (active).
